≈ marks a conversion by molar mass, not a printed value.
settings: buffer; pH 7.4; 200.0 µM

c1ccc(Oc2cccc3cccnc23)nc1 and O=C(Oc1ccc(Cl)c2cccnc12)c1cccnc1 are within 1.5-fold of each other in solubility kinetic: 32.5 µg/mL (≈ 146 µM) for the first, 30 µg/mL (≈ 105 µM) for the second.

Going from CC(C)(C)c1ccc(NC(=S)NCCc2ccccn2)cc1 to CC(C)(C)c1ccc(COn2ccnc2)cc1, the solubility kinetic rises from 5.1 µg/mL (≈ 16.3 µM) to 27.1 µg/mL (≈ 118 µM) (5.3-fold).

Cl.O=S(=O)(c1ccc(F)cc1)N1CCCNCC1 and O=S(=O)(Nc1cccc(S(=O)(=O)N2CCCC2)c1)c1ccc(Cl)cc1 cannot be ordered by solubility kinetic: greater than 44.2 µg/mL for the first, greater than 60.1 µg/mL for the second.

CCCN1CNc2c(c(=O)[nH]c(=S)n2-c2ccccc2Cl)C1 and Cl.c1ccc2c3c([nH]c2c1)CCNC3 cannot be ordered by solubility kinetic: greater than 50.5 µg/mL for the first, greater than 31.3 µg/mL for the second.

CCCCc1ncc(CN2CCN(Cc3ccc(C)cc3)C(CCO)C2)[nH]1 (stereo unspecified) and Cc1ccc(SCCN2CCN(C)CC2)cc1.Cl are within 1.5-fold of each other in solubility kinetic: 49.1 µg/mL (≈ 133 µM) for the first, 35.5 µg/mL for the second.

CCN(CC)S(=O)(=O)c1ccc(OC(C)C)c(N)c1 and COc1nccnc1NS(=O)(=O)c1ccc(N)cc1 cannot be ordered by solubility kinetic: greater than 43 µg/mL for the first, greater than 42 µg/mL for the second.

COc1cc(C(=O)OCC(=O)N2CCCC2=O)cc(OC)c1C and CC1CCCC(C)N1C(=O)COC(=O)c1cncc(Br)c1 (stereo unspecified) cannot be ordered by solubility kinetic: greater than 48.2 µg/mL for the first, greater than 53.3 µg/mL for the second.

Compared with Cc1cccnc1NC(=S)Nc1ccc(F)cc1F, Cc1ccccc1NC(=S)NC1CCCC1 is 4.4-fold higher in solubility kinetic: 8 µg/mL (≈ 28.6 µM) for the first, 34.9 µg/mL (≈ 149 µM) for the second.

Compared with COc1ccccc1Nc1nc(NCCO)nc(N)c1[N+](=O)[O-], COc1ccccc1NC(=O)Nc1ccc2c(c1)CCC2 is lower in solubility kinetic: 3.4 µg/mL (≈ 10.6 µM) for the first, less than 0.3 µg/mL for the second.

Going from CCOc1ccc(NC(=S)NC(=O)/C=C/c2ccco2)cc1 to CC(=O)Nc1ccc(OCC(=O)NCCc2ccccc2)cc1, the solubility kinetic rises from less than 0.3 µg/mL to greater than 46.9 µg/mL.

COc1ccc2c(c1)c(C(C)=O)c(C)n2-c1ccc(C(C)=O)cc1 and COc1ccc(N2CCN(c3cc(C)c4ccccc4n3)CC2)cc1 cannot be ordered by solubility kinetic: less than 0.7 µg/mL for the first, less than 0.2 µg/mL for the second.

Compared with O=C(NCc1ccccc1F)C1CCCN1C(=O)Nc1ccccc1 (stereo unspecified), O=C(COC(=O)c1cc(=O)[nH]c2ccccc12)Nc1ccccc1F is lower in solubility kinetic: greater than 51.2 µg/mL for the first, 19.7 µg/mL (≈ 57.9 µM) for the second.

Cc1cc(C)[n+](Cc2ccccc2)cc1C(N)=O.[Cl-] and CSc1ccccc1C(=O)N(C)Cc1ccccc1 cannot be ordered by solubility kinetic: greater than 41.5 µg/mL for the first, greater than 40.7 µg/mL for the second.

Going from COc1cc2c(cc1OC)-c1cc(Nc3ccc(F)cc3)nc(=O)n1CC2 to COc1ccc(Nc2ncnc3sccc23)cc1, the solubility kinetic rises from 2.1 µg/mL (≈ 5.72 µM) to 36 µg/mL (≈ 140 µM) (17-fold).

Going from O=S(=O)(NC1CCCCCC1)c1cccc(Cl)c1 to CN(CC(=O)NC1CCCC1)S(=O)(=O)c1cccc(Cl)c1, the solubility kinetic falls from 40.6 µg/mL (≈ 141 µM) to 7.6 µg/mL (≈ 23 µM) (5.3-fold).

Compared with CN1C(c2ccccc2)=NO[C@]1(C)c1ccccc1, CC1(C)COC(Cn2c3ccccc3c3ccccc32)O1 (stereo unspecified) is lower in solubility kinetic: 35.9 µg/mL (≈ 142 µM) for the first, less than 0.6 µg/mL for the second.

COc1ccccc1OCC#CCn1ccnc1.O=C(O)C(=O)O and O=C(O)c1ccccc1C(=O)NCCCn1ccnc1 cannot be ordered by solubility kinetic: greater than 49.8 µg/mL for the first, greater than 41 µg/mL for the second.

First: O=C(c1ccco1)N1CCN(S(=O)(=O)c2cc(Cl)ccc2Cl)CC1
Second: O=C(NCc1cccc(C(F)(F)F)c1)N1CCN(C(=O)c2ccccc2)CC1
The solubility kinetic of the first is lower: 18.1 µg/mL (≈ 46.5 µM) for the first, greater than 58.7 µg/mL for the second.

Compared with CCCCc1nc2cc(C(=O)NCc3cn(C)nc3C)ccc2o1, CCn1cc(CCCC(=O)NCc2ccccc2OC)c2ccccc21 is lower in solubility kinetic: greater than 49 µg/mL for the first, 10.2 µg/mL (≈ 29.1 µM) for the second.

First: O=C(c1cccc([N+](=O)[O-])c1)N1CCc2ccccc21
Second: O=C(CN1C(=O)C(=O)c2ccccc21)c1ccccc1
The solubility kinetic of the first is 16-fold lower: 2.1 µg/mL (≈ 7.83 µM) for the first, 33.8 µg/mL (≈ 127 µM) for the second.

O=C(COc1ccccc1)NCC(=O)N1CCCCCC1 and CC(C)c1nc2ccccc2n1CC(O)COC1CCCCC1 (stereo unspecified) cannot be ordered by solubility kinetic: greater than 43.6 µg/mL for the first, greater than 47.5 µg/mL for the second.

Compared with O=C(Nc1ccccc1C(=O)Nc1ccccn1)c1ccccc1F, O=C(COC(=O)c1cc(=O)c2ccccc2o1)Nc1ccccc1F is higher in solubility kinetic: 2 µg/mL (≈ 5.96 µM) for the first, greater than 51.2 µg/mL for the second.

Going from CC(C)(C)c1ccc(-c2noc(-c3ccc4c(c3)CCO4)n2)cc1 to CN(Cc1ccc(N(C)C)cc1)C(=O)c1cc2ccccc2o1, the solubility kinetic rises from 0.8 µg/mL (≈ 2.5 µM) to 31.5 µg/mL (≈ 102 µM) (39-fold).

CC(C)c1ccc(NC(=O)c2ccccc2NC(=O)C2CC=CCC2C(=O)O)cc1 (stereo unspecified) and CC(C)c1ccc(NC(=O)CN2C(=O)NC3(CCCC3)C2=O)cc1 cannot be ordered by solubility kinetic: greater than 61 µg/mL for the first, greater than 49.4 µg/mL for the second.

CCC(=O)Nc1cc2c3c(c1)CCC(=O)N3CCC2 and Cc1ccccc1N1CC(C(=O)Nc2ccc3c(c2)OCO3)CC1=O (stereo unspecified) cannot be ordered by solubility kinetic: greater than 38.7 µg/mL for the first, 43.4 µg/mL (≈ 128 µM) for the second.

Cc1ccc(S(=O)(=O)N2CCN(C(C)C(=O)NCC(C)c3ccccc3)CC2)cc1 (stereo unspecified) and O=C(O)c1cc(-c2ccccc2)n(-c2ccc(F)cc2)n1 cannot be ordered by solubility kinetic: 58.2 µg/mL (≈ 135 µM) for the first, greater than 42.3 µg/mL for the second.

CCSc1ccc(C(=O)NCC(=O)O)cc1 and CCN(CC)C(=O)CSC(Nc1cccc(F)c1)=C(C#N)C#N cannot be ordered by solubility kinetic: greater than 35.9 µg/mL for the first, greater than 49.9 µg/mL for the second.

First: C=CCNC(=O)COc1cc(C)cc(C)c1C
Second: COc1ccc(CCCC(=O)Nc2cc(C)ccc2OC)cc1
The solubility kinetic of the first is 1.5-fold higher: 30.8 µg/mL (≈ 132 µM) for the first, 20 µg/mL (≈ 63.8 µM) for the second.

First: CC1CCCN(c2c3c(nc4ccccc24)CCCC3)C1 (stereo unspecified)
Second: COc1ccc(-c2nc3ccccc3c(=O)n2CCc2ccc(O)cc2)cc1
The solubility kinetic of the first is 21-fold lower: 0.6 µg/mL (≈ 2.14 µM) for the first, 12.4 µg/mL (≈ 33.3 µM) for the second.

Going from CCc1ccc(Nc2ccc3nonc3c2[N+](=O)[O-])cc1 to O=[N+]([O-])c1ccc(NCCCN2CCOCC2)nc1, the solubility kinetic rises from less than 0.2 µg/mL to greater than 39.9 µg/mL.

In the case of CC1=C(Cl)C2=NS(=O)(=O)CCN2C=C1Cl, the solubility kinetic is reported as greater than 40.1 µg/mL.

From PubChem BioAssay AID1996
